Tests used:
human EAAT3 = target: T1, human EAAT3 (Homo sapiens, UniProt P43005); assay: FLIPR Membrane Potential (FMP) assay, antagonist potency at human EAAT3; type: cell-based; settings: HEK-293 cells stably expressing human EAAT3; L-glutamate as agonist at EC80; antagonists applied 15 min before; Kb by Cheng-Prusoff from IC50
T1 construct: expressed in transfected cells; host or cells: HEK-293
T1 sequence (P43005 1-524): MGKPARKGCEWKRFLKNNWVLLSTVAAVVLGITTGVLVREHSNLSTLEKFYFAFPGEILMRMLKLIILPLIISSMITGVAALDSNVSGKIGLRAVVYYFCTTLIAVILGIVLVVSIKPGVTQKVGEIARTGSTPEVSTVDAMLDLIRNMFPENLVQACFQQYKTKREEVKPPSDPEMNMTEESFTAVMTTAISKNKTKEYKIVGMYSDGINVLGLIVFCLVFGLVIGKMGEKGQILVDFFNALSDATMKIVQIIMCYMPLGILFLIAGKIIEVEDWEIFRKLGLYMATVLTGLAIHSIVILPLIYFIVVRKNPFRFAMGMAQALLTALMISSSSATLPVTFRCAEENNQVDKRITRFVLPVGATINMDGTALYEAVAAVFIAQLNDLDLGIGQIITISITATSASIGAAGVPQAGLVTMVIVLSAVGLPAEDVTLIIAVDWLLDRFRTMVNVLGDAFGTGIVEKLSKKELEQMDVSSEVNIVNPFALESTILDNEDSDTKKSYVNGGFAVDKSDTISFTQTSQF
Protocol: The FLIPR Membrane Potential (FMP) Assay
HEK-293 cells stably expressing human EAAT3 were seeded at 55 000 cells/well in growth medium (DMEM glutamate free (Invitrogen 11960-044), 1% Pen Strep (10 ml/1 GIBCO BRL N^o 15140-023), 10% FCS non dialysed heat inactivated, 5 mg/l puromycin) in poly-D-lysine treated 96-well black microtiter plates with clear-bottom. After 24 h, the growth medium was removed and […] of Krebs buffer (140 mM NaCl, 4.7 mM KCl, 2.5 mM CaCl2, 1.2 mM MgCl2, 11 mM HEPES, 10 mM D-glucose, pH=7.4) added. The cells were then loaded by adding 100 μl/well FMP assay dye (FLIPR Membrane Potential assay reagent, Molecular Devices). The 96-well plates were then incubated at 37° C. for 1 h. The depolarization of the cells will cause more dye to enter in the cells, where it will bind to intracellular proteins and lipids and cause an increase in the fluorescence signal. Antagonist potency at human EAAT3 was determined by using L-glutamate as agonist at a concentration which gives 80% of the maximum response. The antagonists were applied 15 min before the application of the agonist L-glutamate. The assays were performed at room temperature and measurements done by using a Fluorometric Imaging Plate Reader (FLIPR, Molecular Devices) and filter #2. Responses were measured as peak increase in fluorescence minus basal (i.e. fluorescence without addition of L-glutamate). Kb was determined using the Cheng-Prusoff equation Kb=IC50/[1+(A/EC50)], where IC50 is the concentration of the antagonist producing 50% inhibition, A is the concentration of the agonist against which the IC50 is being determined (at EC80) and EC50 is the concentration of the agonist producing 50% […].

SMILES: Cc1ccc(-c2cc(C(=O)NC(C)(C)C)cc(-c3cncnc3C(C)C)c2)cc1F [Example 30, N-tert-Butyl-3-(3-fluoro-4-methylphenyl)-5-(4-propan-2-ylpyrimidin-5-yl)-benzamide]
- Kb (human EAAT3): 770 nM
- melting point: 90 °C

SMILES: CC(C)c1ncncc1-c1cc(C(=O)NC(C)(C)C)cc(-c2ccc(C3CC3)cc2)c1 [Example 27, N-tert-Butyl-3-(4-cyclopropylphenyl)-5-(4-propan-2-ylpyrimidin-5-yl)-benzamide]
- Kb (human EAAT3): 180 nM
- melting point: 91.5 °C

SMILES: Cc1ncccc1-c1cc(C(=O)NC(C)(C)C)cc(-c2ccc(F)cc2)c1 [Example 24, N-tert-Butyl-3-(4-fluorophenyl)-5-(2-methylpyridin-3-yl)-benzamide]
- Kb (human EAAT3): 170 nM
- melting point: 78 °C

SMILES: CCc1ncncc1-c1cc(C(=O)NC(C)(C)C)cc(-c2ccc(Cl)cc2)c1 [Example 40, N-tert-Butyl-3-(4-chlorophenyl)-5-(4-ethyl-pyrimidin-5-yl)-benzamide]
- Kb (human EAAT3): 140 nM
- melting point: 75 °C

SMILES: Cc1ccc(-c2cc(C(=O)NC(C)(C)C)cc(-c3cncnc3C(C)C)c2)cc1 [Example 25, N-tert-Butyl-3-(4-methylphenyl)-5-(4-propan-2-ylpyrimidin-5-yl)-benzamide]
- Kb (human EAAT3): 250 nM
- melting point: 91 °C

SMILES: CC(C)c1ncncc1-c1cc(C(=O)NC(C)(C)C(F)(F)F)cc(-c2ccc(Cl)cc2)c1 [Example 18, 3-(4-Chlorophenyl)-5-(4-propan-2-ylpyrimidin-5-yl)-N-(1,1,1-trifluoro-2-methylpropan-2-yl)-benzamide]
- Kb (human EAAT3): 250 nM
- melting point: 170 °C

SMILES: CC(C)c1ncncc1-c1cc(C(=O)NC(C)(C)C)cc(-c2ccc(Cl)c(F)c2)c1 [Example 31, N-tert-Butyl-3-(4-chloro-3-fluorophenyl)-5-(4-propan-2-ylpyrimidin-5-yl)-benzamide]
- Kb (human EAAT3): 320 nM
- melting point: 93 °C

SMILES: Cc1ccncc1-c1cc(C(=O)NC(C)(C)C)cc(-c2ccc(F)cc2)c1 [Example 21, N-tert-Butyl-3-(4-fluorophenyl)-5-(4-methylpyridin-3-yl)-benzamide]
- Kb (human EAAT3): 200 nM
- melting point: 83 °C

SMILES: CC(C)c1ncncc1-c1cc(C(=O)NC(C)(C)C)cc(-c2ccc(C#N)cc2)c1 [Example 32, N-tert-Butyl-3-(4-cyanophenyl)-5-(4-propan-2-ylpyrimidin-5-yl)-benzamide]
- Kb (human EAAT3): 570 nM
- melting point: 98 °C

SMILES: Cc1cc(-c2cc(C(=O)NC(C)(C)C#N)cc(-c3cncnc3C(C)C)c2)ccc1F [Example 35, N-(2-Cyanopropan-2-yl)-3-(4-fluoro-3-methylphenyl)-5-(4-propan-2-yl-pyrimidin-5-yl)-benzamide]
- Kb (human EAAT3): 350 nM
- melting point: 101 °C

SMILES: CC(C)c1ncncc1-c1cc(C(=O)NC(C)(C)C2CC2)cc(-c2ccc(F)cc2)c1 [Example 22, N-(2-Cyclopropylpropan-2-yl)-3-(4-fluorophenyl)-5-(4-propan-2-ylpyrimidin-5-yl)-benzamide]
- Kb (human EAAT3): 57 nM
- melting point: 74 °C

SMILES: CC(C)c1ncncc1-c1cc(C(=O)NC(C)(C)C)cc(-c2ccc(F)c(F)c2)c1 [Example 26, N-tert-Butyl-3-(3,4-difluorophenyl)-5-(4-propan-2-ylpyrimidin-5-yl)-benzamide]
- Kb (human EAAT3): 100 nM
- melting point: 80 °C

SMILES: CC(C)c1ncncc1-c1cc(C(=O)NC(C)(C)C#N)cc(-c2ccc(Cl)cc2)c1 [Example 38, 3-(4-Chlorophenyl)-N-(2-cyanopropan-2-yl)-5-(4-propan-2-yl-pyrimidin-5-yl)-benzamide]
- Kb (human EAAT3): 160 nM
- melting point: 97 °C

SMILES: CC(C)c1ncncc1-c1cc(C(=O)NC(C)(C)C)cc(-c2ccc(C(F)(F)F)cc2)c1 [Example 28, N-tert-Butyl-3-(4-propan-2-ylpyrimidin-5-yl)-5-[4-(trifluoromethyl)-phenyl]-benzamide]
- Kb (human EAAT3): 310 nM
- melting point: 168 °C

SMILES: CC(C)c1ncncc1-c1cc(C(=O)NC(C)(C)C)cc(-c2ccc(Cl)cc2)c1 [Example 11, N-tert-Butyl-3-(4-chlorophenyl)-5-(4-propan-2-ylpyrimidin-5-yl)-benzamide]
- Kb (human EAAT3): 230 nM
- melting point: 182 °C

SMILES: COc1ccc(-c2cc(C(=O)NC(C)(C)C)cc(-c3cncnc3C(C)C)c2)cc1 [Example 33, N-tert-Butyl-3-(4-methoxyphenyl)-5-(4-propan-2-ylpyrimidin-5-yl)-benzamide]
- Kb (human EAAT3): 540 nM
- melting point: 84 °C

SMILES: CC(C)c1ncncc1-c1cc(C(=O)NC(C)(C)C#N)cc(-c2ccc(F)cc2)c1 [Example 36, N-(2-Cyanopropan-2-yl)-3-(4-fluorophenyl)-5-(4-propan-2-yl-pyrimidin-5-yl)-benzamide]
- Kb (human EAAT3): 270 nM
- melting point: 97 °C

SMILES: CC(C)c1ncncc1-c1cc(C(=O)NC(C)(C)C#N)cc(-c2ccc(C(F)(F)F)cc2)c1 [Example 37, N-(2-Cyanopropan-2-yl)-3-(4-propan-2-yl-pyrimidin-5-yl)-5-[4-(trifluoromethyl)-phenyl]-benzamide]
- Kb (human EAAT3): 210 nM
- melting point: 98 °C

SMILES: CC(C)(C)NC(=O)c1cc(-c2ccc(Cl)cc2)cc(-c2cccnc2)c1 [Example 8, N-tert-Butyl-3-(4-chlorophenyl)-5-pyridin-3-ylbenzamide]
- Kb (human EAAT3): 350 nM
- melting point: 177 °C

SMILES: Cc1ccc(-c2cc(C(=O)NC(C)(C)C#N)cc(-c3cncnc3C(C)C)c2)cc1F [Example 34, N-(2-Cyanopropan-2-yl)-3-(3-fluoro-4-methylphenyl)-5-(4-propan-2-yl-pyrimidin-5-yl)-benzamide]
- Kb (human EAAT3): 400 nM
- melting point: 102.5 °C

SMILES: CC(C)(C)NC(=O)c1cc(-c2ccc(Cl)cc2)cc(-c2cncnc2)c1 [Example 10, N-tert-Butyl-3-(4-chlorophenyl)-5-pyrimidin-5-ylbenzamide]
- Kb (human EAAT3): 270 nM
- melting point: 195 °C

From patent US10005736B1, “Pyridine and pyrimidine derivatives” (Hoffmann-La Roche Inc., priority 2015, dated 2018)
